Test results: patent publication US6803380B1, “5-aryl-1h-1,2,4-triazole compounds as inhibitors of cyclooxygenase-2 and pharmaceutical compositions containing them” (Laboratoire Theramex, priority 1999, dated 2004)
Where two headings read alike, the source gives them in different places. Blank lines part the entries; values can stand above or below the molecule they belong to.

Tests used:
[1] = biological target: T1, COX-1 (Ovis aries, UniProt P05979); experiment: Inhibition of purified COX-1 activity in vitro (PGE2 by enzymo-immunoassay); format: biochemical, ram; conditions: for % COX-1 inhibition: negative sign = inhibition
T1 construct: Purified COX-1 from ram seminal vesicles; purchased Cayman Chemicals; host or cells: ram seminal vesicles (tissue-purified)
T1 sequence (P05979 25-600): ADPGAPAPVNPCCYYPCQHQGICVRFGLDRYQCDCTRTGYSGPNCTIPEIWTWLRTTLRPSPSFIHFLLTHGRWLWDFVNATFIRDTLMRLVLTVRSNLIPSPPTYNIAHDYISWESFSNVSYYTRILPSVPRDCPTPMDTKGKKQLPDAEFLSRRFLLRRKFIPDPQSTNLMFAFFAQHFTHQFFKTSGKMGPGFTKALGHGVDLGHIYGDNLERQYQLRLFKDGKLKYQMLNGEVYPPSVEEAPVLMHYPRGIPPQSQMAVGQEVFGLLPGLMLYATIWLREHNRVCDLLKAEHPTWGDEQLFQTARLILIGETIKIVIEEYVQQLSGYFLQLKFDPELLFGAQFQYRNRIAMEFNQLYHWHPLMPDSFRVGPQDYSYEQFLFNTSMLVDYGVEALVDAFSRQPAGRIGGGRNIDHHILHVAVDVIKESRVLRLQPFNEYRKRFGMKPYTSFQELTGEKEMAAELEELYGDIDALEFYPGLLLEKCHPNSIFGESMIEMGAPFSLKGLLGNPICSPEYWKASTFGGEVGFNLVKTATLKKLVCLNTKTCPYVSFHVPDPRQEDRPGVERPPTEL
Procedure: (§1) Example compounds according to the invention were tested for their ability to inhibit COX-1 and/or COX-2 activities in vitro. Purified COX-1 from ram seminal vesicles and purified COX-2 from ewe placenta (both from Cayman Chemicals) were incubated for 10 minutes at 25° C. in the presence of their substrate, arachidonic acid (5 μM), with or without test compounds or standard inhibitors. Prostaglandin E2, the reaction product, was measured by enzymo-immunoassay (R&D Systems). Each individual value results from duplicate determinations. Final inhibition data are means±standard errors of at least (3) independent experiments performed on as many different days.

[2] = biological target: T2, COX-2 (Ovis aries, UniProt P79208); experiment: Inhibition of purified COX-2 activity in vitro (PGE2 by enzymo-immunoassay); format: biochemical, ewe; conditions: for COX-2 inhibitory potency compared with nimesulide (in words): same concentration, 1 μM
T2 construct: purified COX-2 from ewe placenta; purchased Cayman Chemicals; host or cells: ewe placenta (tissue-purified)
T2 sequence (P79208 17-603): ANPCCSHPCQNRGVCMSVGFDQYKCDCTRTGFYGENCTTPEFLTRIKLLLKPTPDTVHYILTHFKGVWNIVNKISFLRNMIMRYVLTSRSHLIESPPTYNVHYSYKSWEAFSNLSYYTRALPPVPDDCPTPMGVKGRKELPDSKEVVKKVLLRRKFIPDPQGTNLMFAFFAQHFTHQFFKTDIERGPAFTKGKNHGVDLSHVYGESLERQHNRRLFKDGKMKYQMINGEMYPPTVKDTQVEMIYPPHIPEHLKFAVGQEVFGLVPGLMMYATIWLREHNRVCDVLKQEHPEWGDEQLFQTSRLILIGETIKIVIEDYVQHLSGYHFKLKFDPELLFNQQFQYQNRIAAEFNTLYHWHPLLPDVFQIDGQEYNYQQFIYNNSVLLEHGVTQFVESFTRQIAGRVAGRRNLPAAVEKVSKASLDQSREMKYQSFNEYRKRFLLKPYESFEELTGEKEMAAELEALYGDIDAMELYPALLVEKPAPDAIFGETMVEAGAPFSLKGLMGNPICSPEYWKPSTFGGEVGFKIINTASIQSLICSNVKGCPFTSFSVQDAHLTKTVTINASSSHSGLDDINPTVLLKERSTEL
Procedure: as §1

[3] = concentration 1 μM, read-out: % COX-2 inhibition

Compound: Cc1nc(-c2ccc(S(C)(=O)=O)cc2)n(-c2ccc(F)cc2)n1 [Example 2, 1-(4-fluoro-phenyl)-3-methyl-5-(4-methylsulfonyl-phenyl)-1H-1,2,4-triazole]
melting point: 180 °C

Compound: CS(=O)(=O)c1ccc(-c2nc(C(F)(F)F)nn2-c2ccc(Cl)cc2)cc1 [Example 21, 1-(4-chloro-phenyl)-5-(4-methylsulfonyl-phenyl)-3-trifluoromethyl-1H-1,2,4-triazole]
melting point: 190 to 192 °C

Compound: CS(=O)(=O)c1ccc(-c2nc(C(F)(F)F)nn2-c2ccc(S(C)(=O)=O)cc2)cc1 [Example 26, 1,5-di-(4-methylsulfonyl-phenyl)-3-trifluoromethyl-1H-1,2,4-triazole]
melting point: 214 °C

Compound: COc1ccc(-n2nc(C(F)(F)F)nc2-c2ccc(S(N)(=O)=O)cc2)cc1 [Example 34, 1-(4-methoxy-phenyl)-5-(4-aminosulfonyl-phenyl)-3-trifluoromethyl-1H-1,2,4-triazole]
inhibition of COX-1 (in words) ([1]; concentration 1 μM): did not show any significant inhibition of COX-1
% COX-1 inhibition ([1]; concentration 1 μM): −16 ± 10%
selective inhibition of COX-2 (in words) ([2]; concentration 1 μM): able to inhibit COX-2 selectively
inhibition at 1 µM [2, 3]: 78 ± 2%
COX-2 inhibitory potency compared with nimesulide (in words) [2]: even more potent

Compound: COc1ccc(-n2nc(C)nc2-c2ccc(S(C)(=O)=O)cc2)cc1OC [Example 14, 1-(3,4-dimethoxy-phenyl)-3-methyl-5-(4-methylsulfonyl-phenyl)-1H-1,2,4-triazole]
melting point: 186 °C

Compound: CS(=O)(=O)c1ccc(-c2nc(C(F)(F)F)nn2-c2ccc(Br)cc2)cc1 [Example 18, 1-(4-bromo-phenyl)-5-(4-methylsulfonyl-phenyl)-3-trifluoromethyl-1H-1,2,4-triazole]
inhibition of COX-1 (in words) ([1]; concentration 1 μM): did not show any significant inhibition of COX-1
% COX-1 inhibition ([1]; concentration 1 μM): −5 ± 12%
melting point: 198 °C
selective inhibition of COX-2 (in words) ([2]; concentration 1 μM): able to inhibit COX-2 selectively
inhibition at 1 µM [2, 3]: 53%
COX-2 inhibitory potency compared with nimesulide (in words) [2]: even more potent
COX-2 potency relative to nimesulide ([2]; same inhibition at 1 μM vs. 10 μM nimesulide): about 10 times

Compound: COc1ccc(-n2nc(C(F)(F)F)nc2-c2ccc(S(C)(=O)=O)cc2)cc1OC [Example 27, 1-(3,4-dimethoxy-phenyl)-5-(4-methylsulfonyl-phenyl)-3-trifluoromethyl-1H-1,2,4-triazole]
melting point: 140 °C

Compound: Cc1nc(-c2ccc(S(C)(=O)=O)cc2)n(-c2ccc(Cl)cc2)n1 [Example 3, 1-(4-chloro-phenyl)-3-methyl-5-(4-methylsulfonyl-phenyl)-1H-1,2,4-triazole]
inhibition of COX-1 (in words) ([1]; concentration 1 μM): did not show any significant inhibition of COX-1
% COX-1 inhibition ([1]; concentration 1 μM): −2 ± 5.7%
melting point: 186 °C
selective inhibition of COX-2 (in words) ([2]; concentration 1 μM): able to inhibit COX-2 selectively
inhibition at 1 µM [2, 3]: 19 ± 2.6%

Compound: Cc1nc(-c2ccc(S(C)(=O)=O)cc2)n(-c2ccc(F)cc2F)n1 [Example 11, 1-(2,4-difluoro-phenyl)-3-methyl-5-(4-methylsulfonyl-phenyl)-1H-1,2,4-triazole]
melting point: 160 °C

Compound: Cc1nc(-c2ccc(S(C)(=O)=O)cc2)n(-c2ccc(F)c(F)c2)n1 [Example 13, 1-(3,4-difluoro-phenyl)-3-methyl-5-(4-methylsulfonyl-phenyl)-1H-1,2,4-triazole]
melting point: 194 °C

Compound: CS(=O)(=O)c1ccc(-c2nc(C(F)(F)F)nn2-c2ccc3c(c2)OCO3)cc1 [Example 28, 1-(3,4-methylenedioxy-phenyl)-5-(4-methylsulfonyl-phenyl)-3-trifluoromethyl-1H-1,2,4-triazole]
melting point: 185 °C

Compound: COc1ccc(-n2nc(C(F)(F)F)nc2-c2ccc(S(C)(=O)=O)cc2)cc1 [Example 17, 1-(4-methoxy-phenyl)-5-(4-methylsulfonyl-phenyl)-3-trifluoromethyl-1H-1,2,4-triazole]
inhibition of COX-1 (in words) ([1]; concentration 1 μM): did not show any significant inhibition of COX-1
% COX-1 inhibition ([1]; concentration 1 μM): +8 ± 2.7%
melting point: 156 °C
selective inhibition of COX-2 (in words) ([2]; concentration 1 μM): able to inhibit COX-2 selectively
inhibition at 1 µM [2, 3]: 44 ± 6.8%
COX-2 inhibitory potency compared with nimesulide (in words) [2]: even more potent

Compound: Cc1nc(-c2ccc(S(C)(=O)=O)cc2)n(-c2ccc(Br)cc2)n1 [Example 9, 1-(4-bromo-phenyl)-3-methyl-5-(4-methylsulfonyl-phenyl)-1H-1,2,4-triazole]
melting point: 188 °C

Compound: COc1ccc(Cn2nc(C(F)(F)F)nc2-c2ccc(S(C)(=O)=O)cc2)cc1OC [Example 23, 1-(3,4-dimethoxy-phenyl-methyl)-5-(4-methylsulfonyl-phenyl)-3-trifluoromethyl-1H-1,2,4-triazole]
melting point: 142 °C

Compound: CS(=O)(=O)c1ccc(-c2nc(C(F)(F)F)nn2-c2ccc(F)cc2)cc1 [Example 20, 1-(4-fluoro-phenyl)-5-(4-methylsulfonyl-phenyl)-3-trifluoromethyl-1H-1,2,4-triazole]
melting point: 230 to 232 °C

Compound: CS(=O)(=O)c1ccc(-c2nc(C(F)(F)F)nn2C2CCCCC2)cc1 [Example 22, 1-(cyclohexyl)-5-(4-methylsulfonyl-phenyl)-3-trifluoromethyl-1H-1,2,4-triazole]
melting point: 136 °C

Compound: Cc1ccc(-n2nc(C)nc2-c2ccc(S(C)(=O)=O)cc2)cc1 [Example 4, 3-methyl-1-(4-methyl-phenyl)-5-(4-methylsulfonyl-phenyl)-1H-1,2,4-triazole]
melting point: 176 °C

Compound: COc1ccc(-n2nc(C(F)(F)F)nc2-c2ccc(S(C)(=O)=O)cc2)cc1F [Example 33, 1-(3-fluoro-4-methoxy-phenyl)-5-(4-methylsulfonyl-phenyl)-3-trifluoromethyl-1H-1,2,4-triazole]
melting point: 180 °C

The next lines start with results.

melting point: 148 °C
Compound: COc1ccc(-n2nc(C(F)(F)F)nc2-c2ccc(S(C)(=O)=O)cc2Cl)cc1 [Example 24, 5-(2-chloro-4-methylsulfonyl-phenyl)-1-(4-methoxy-phenyl)-3-trifluoromethyl-1H-1,2,4-triazole]

% COX-1 inhibition ([1]; concentration 1 μM): −4 ± 14.6%
melting point: 128 °C
selective inhibition of COX-2 (in words) ([2]; concentration 1 μM): able to inhibit COX-2 selectively
inhibition at 1 µM [2, 3]: 32 ± 4.5%
Compound: COc1ccc(-n2nc(C)nc2-c2ccc(S(C)(=O)=O)cc2)cc1 [Example 10, 1-(4-methoxy-phenyl)-3-methyl-5-(4-methylsulfonyl-phenyl)-1H-1,2,4-triazole]
inhibition of COX-1 (in words) ([1]; concentration 1 μM): did not show any significant inhibition of COX-1

melting point: 146 °C
Compound: Cc1nc(-c2ccc(S(C)(=O)=O)cc2)n(-c2ccccc2)n1 [Example 5, 3-methyl-5-(4-methylsulfonyl-phenyl)-1-phenyl-1H-1,2,4-triazole]

% COX-1 inhibition ([1]; concentration 0.1 μM): +7 ± 6.6%
% COX-1 inhibition ([1]; concentration 1 μM): +16 ± 12.2%
% COX-1 inhibition ([1]; concentration 10 μM): +13 ± 8.3%
inhibition at 0.1 µM ([2]; read-out: % COX-2 inhibition): 23 ± 5.4%
inhibition at 1 µM ([2]; read-out: % COX-2 inhibition): 30 ± 3.2%
inhibition at 10 µM ([2]; read-out: % COX-2 inhibition): 50%
Compound: CS(=O)(=O)Nc1ccc([N+](=O)[O-])cc1Oc1ccccc1 [Nimesulide, reference compound]

melting point: 180 °C
Compound: CS(=O)(=O)c1ccc(-c2nc(C(F)(F)F)nn2-c2cccnc2)cc1.Cl

melting point: 130 °C
Compound: Cc1nc(-c2ccc(S(C)(=O)=O)cc2)n(-c2cccc(Cl)c2)n1 [Example 7, 1-(3-chloro-phenyl)-3-methyl-5-(4-methylsulfonyl-phenyl)-1H-1,2,4-triazole]

melting point: 170 °C
Compound: Cc1nc(-c2ccc(S(C)(=O)=O)cc2)n(-c2ccccc2Cl)n1 [Example 6, 1-(2-chloro-phenyl)-3-methyl-5-(4-methylsulfonyl-phenyl)-1H-1,2,4-triazole]

melting point: 180 °C
Compound: Cc1nc(-c2ccc(S(C)(=O)=O)cc2)n(-c2ccc([N+](=O)[O-])cc2)n1 [Example 12, 3-methyl-5-(4-methylsulfonyl-phenyl)-1-(4-nitro-phenyl)-1H-1,2,4-triazole]
